The record followed here is patent US7511144B2, “Reverse hydroxamic acid derivatives” (Kaken Pharmaceutical Co., Ltd., priority 2001, dated 2009).

Like-named read-outs stand apart in the source and are kept apart here. Bounds are passed on as bounds.

Assay type in all cases: biochemical
In one test the target is T1, TACE (Homo sapiens, UniProt P78536).
T1 construct: made in house; host or cells: mammalian cells or insect cells
The test is described as follows: TACE inhibition experiment (in vitro).

A further test deals with T2, Human MMP1 (Homo sapiens, UniProt P03956).
T2 construct: purchased Calbiochem 444208
T2 sequence (P03956 100-469): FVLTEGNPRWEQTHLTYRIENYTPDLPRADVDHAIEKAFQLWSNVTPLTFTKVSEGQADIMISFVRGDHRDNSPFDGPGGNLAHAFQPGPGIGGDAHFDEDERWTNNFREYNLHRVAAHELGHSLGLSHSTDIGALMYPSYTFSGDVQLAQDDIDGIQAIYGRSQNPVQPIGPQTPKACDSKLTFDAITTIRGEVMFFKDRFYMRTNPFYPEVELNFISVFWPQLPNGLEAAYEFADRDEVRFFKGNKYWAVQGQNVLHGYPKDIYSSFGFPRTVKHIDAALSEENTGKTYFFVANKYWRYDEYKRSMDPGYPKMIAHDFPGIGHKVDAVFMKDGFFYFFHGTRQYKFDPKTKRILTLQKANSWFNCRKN
Briefly: MMP1 inhibition experiment. The following applies: read-out: IC50 value MMP-1.

The next test has as its target T3, Human MMP3 (Homo sapiens, UniProt P08254).
T3 construct: purchased Calbiochem 444217
Briefly: MMP3 inhibition experiment. The settings on record: concentration required for 50% inhibition of enzyme activity; read-out: IC50 value MMP-3. As for the experimental part: (§1) MMP inhibition experiment may be carried out using a fluorescent synthetic substrate according to, for example, the methods of Bickett et al. (D. Mark Bickett et al., Anal. Biochem., 1993, 212, 58-64) and Nagase et al. (H. Nagase et al., J. Biol. Chem., 1994, 269, 20952-20957). The methods of inhibition experiments carried out for various MMPs are described below.
Human MMP3 (Calbiochem #444217) in 90 μL (5 ng) prepared in the assay buffer A was added to 90 μL of 20 μM fluorescent substrate NFF-3(MOCAc-Arg-Pro-Lys-Pro-Val-Glu-Nva-Trp-Arg-Lys(Dnp)-NH2, Peptide Institute, Inc., #3168-v) prepared in the assay buffer B, followed by reaction for 5 hours at 37° C.

Another test deals with T4, Human MMP9 (Homo sapiens, UniProt P14780).
T4 construct: purchased Calbiochem 444231
Briefly: MMP9 inhibition experiment. The settings on record: read-out: IC50 value MMP-9.

The target of another test is T5, Human MMP13 (Homo sapiens, UniProt P45452).
T5 construct: purchased Chemicon CC068
Briefly: MMP13 inhibition experiment. The following applies: concentration required for 50% inhibition of enzyme activity; read-out: IC50 value MMP-13.

The target of another test is T6, Human MMP14 (Homo sapiens, UniProt P50281).
T6 construct: purchased Biogenesis or Calbiochem 5980-1461 or 475935
The test is described as follows: MMP14 inhibition experiment. The following applies: concentration required for 50% inhibition of enzyme activity; read-out: IC50 value MMP-14. The method, then:
as §1
Human MMP14 (Biogenesis #5980-1461 or Calbiochem #475935) in amount of 90 μL (4 ng) prepared in the assay buffer A was added to 90 μL of 20 μM fluorescent substrate (Dnp-Pro-Cha-Gly-Cys(Me)-His-Ala-Lys(Nma)-NH2) prepared in the assay buffer B, followed by reaction for 5 hours at 37° C.

A further test addresses T7, Human MMP17 (Homo sapiens, UniProt Q9ULZ9).
T7 construct: purchased Calbiochem 475940
T7 sequence (Q9ULZ9 126-300 limits assumed): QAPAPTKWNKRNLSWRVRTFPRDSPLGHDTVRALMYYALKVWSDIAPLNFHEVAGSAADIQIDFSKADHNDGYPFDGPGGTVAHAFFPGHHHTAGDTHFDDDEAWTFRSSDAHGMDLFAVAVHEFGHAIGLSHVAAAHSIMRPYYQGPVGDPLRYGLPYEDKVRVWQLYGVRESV
Briefly: MMP17 inhibition test. The following applies: concentration required for 50% inhibition of enzyme activity; read-out: IC50 value MMP-17.

Setting [1] is: concentration required for 50% inhibition of enzyme activity.

T3 sequence (P08254 100-272 limits assumed): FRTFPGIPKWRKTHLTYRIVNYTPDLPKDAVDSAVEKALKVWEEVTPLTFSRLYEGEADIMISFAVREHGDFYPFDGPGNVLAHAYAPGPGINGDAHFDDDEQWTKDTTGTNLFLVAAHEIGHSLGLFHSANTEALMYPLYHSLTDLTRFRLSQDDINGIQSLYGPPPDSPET
T1 sequence (P78536 215-824): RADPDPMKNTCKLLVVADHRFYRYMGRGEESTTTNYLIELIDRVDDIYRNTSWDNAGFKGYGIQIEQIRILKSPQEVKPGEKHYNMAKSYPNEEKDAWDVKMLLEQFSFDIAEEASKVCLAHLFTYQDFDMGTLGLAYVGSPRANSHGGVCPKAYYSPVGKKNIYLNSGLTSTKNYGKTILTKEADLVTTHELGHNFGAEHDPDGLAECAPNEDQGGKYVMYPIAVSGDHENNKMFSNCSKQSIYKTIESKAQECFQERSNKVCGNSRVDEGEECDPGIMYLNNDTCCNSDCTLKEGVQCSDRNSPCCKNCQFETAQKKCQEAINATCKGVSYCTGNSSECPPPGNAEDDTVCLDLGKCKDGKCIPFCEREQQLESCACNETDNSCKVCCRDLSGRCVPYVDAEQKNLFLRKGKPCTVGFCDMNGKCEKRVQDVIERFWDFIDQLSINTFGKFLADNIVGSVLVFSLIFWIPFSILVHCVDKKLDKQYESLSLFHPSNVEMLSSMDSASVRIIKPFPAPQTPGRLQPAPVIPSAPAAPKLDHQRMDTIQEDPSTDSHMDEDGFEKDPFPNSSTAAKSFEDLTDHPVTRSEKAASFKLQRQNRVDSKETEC
T4 sequence (P14780 107-707 limits assumed): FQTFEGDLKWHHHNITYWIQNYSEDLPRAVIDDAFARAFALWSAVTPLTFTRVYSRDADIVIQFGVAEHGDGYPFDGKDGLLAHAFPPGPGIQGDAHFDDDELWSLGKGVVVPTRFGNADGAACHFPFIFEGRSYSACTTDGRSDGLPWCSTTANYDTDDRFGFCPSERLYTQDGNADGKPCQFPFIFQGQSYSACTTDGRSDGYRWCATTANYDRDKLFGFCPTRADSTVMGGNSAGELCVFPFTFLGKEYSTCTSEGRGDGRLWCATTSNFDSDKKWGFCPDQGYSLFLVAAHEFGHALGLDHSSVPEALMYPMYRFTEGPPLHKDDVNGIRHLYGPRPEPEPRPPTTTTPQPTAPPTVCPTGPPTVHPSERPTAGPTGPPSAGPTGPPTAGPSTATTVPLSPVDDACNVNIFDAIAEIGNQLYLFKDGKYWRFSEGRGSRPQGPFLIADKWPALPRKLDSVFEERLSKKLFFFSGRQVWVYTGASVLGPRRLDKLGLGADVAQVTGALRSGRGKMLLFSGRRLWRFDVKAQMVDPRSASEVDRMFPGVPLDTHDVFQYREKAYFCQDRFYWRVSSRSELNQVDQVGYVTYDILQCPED
Description for Human MMP13: Human MMP13 (Chemicon #CC068) in amount of 90 μL (200 ng) was activated by mixing with 10 μL of 10 mM APMA, followed by reaction for 1 hour at 37° C. This enzyme solution in amount of 0.6 μL was diluted to 90 μL with the assay buffer A, which was added to 90 μL of 20 μM fluorescent substrate (Dnp-Pro-Cha-Gly-Cys(Me)-His-Ala-Lys(Nma)-NH2) prepared in the assay buffer B, followed by reaction for 4 hours at 37° C.
Description for Human MMP9: This enzyme solution in amount of 1 μL was diluted to 90 μL with the assay buffer A, which was added to 90 μL of 20 μM fluorescent substrate (Dnp-Pro-Cha-Gly-Cys(Me)-His-Ala-Lys(Nma)-NH2) prepared in the assay buffer B, followed by reaction for 4 hours at 37° C.
Description for TACE: TACE inhibition experiments were conducted using TACE obtained as above as an enzyme and by measuring TACE activity in the presence or absence of a test substance using Nma (N-metylanthranilic acid)-[sequence]Dnp(dinitrophenyl)-D-Arg-NH2 being a fluorescent synthetic substrate which contains the sequence of cleavage site of membrane-bound TNF by TACE, as a substrate.
More specifically, 14 units of an enzyme solution (1 unit is defined as the amount of enzyme which degrades 1 pmol of the substrate per minute at 25° C.) which was prepared in 90 μL of assay buffer A (50 mM Tris-HCl buffer (pH 7.5) containing 200 mM sodium chloride, 5 mM calcium chloride, 10 μM zinc sulfate, 0.004% sodium azide and 2 mg/mL bovine serum albumin) and 90 μL of 20 μM fluorescent synthetic substrate prepared in assay buffer B (50 mM Tris-HCl buffer (pH 7.5) containing 200 mM sodium chloride, 5 mM calcium chloride, 10 μM zinc sulfate, 0.004% sodium azide and 0.05% PLURONIC F-68) are mixed and reacted for 2 hours at 37° C.

Broadly, the IC50 is the midpoint of a concentration-inhibition curve. `Cc1ccc2nc(C)cc(COc3ccc(S(=O)(=O)CC([C@@H]4CSC(=O)N4C)N(O)C=O)cc3)c2c1` (stereo partly drawn) [Example I-148] displayed a 50% inhibitory concentration (IC50) on TACE of 13 nM.

The compound `COCc1cc(COc2ccc(S(=O)(=O)CC(CC3CCC(=O)CC3)N(O)C=O)cc2)cc(C)n1` (stereo not drawn) [Example I-123] gave a 50% inhibitory concentration (IC50) on TACE of 290 nM.

In turn, `COc1ccc(CCC(CS(=O)(=O)c2ccc(OCc3cc(C)nc4ccccc34)cc2)N(O)C=O)c(C)c1C` (stereo not drawn) [Example I-145] came in with a half-inhibitory concentration (IC50) against TACE of 210 nM.

With `Cc1cc(COc2ccc(S(=O)(=O)CC(/C=C3\CCN(CC(C)C)CC3(C)C)N(O)C=O)cc2)c2ccccc2n1` (stereo not drawn) [Example I-142], the IC50 against TACE is 18 nM.

In the case of `CCC(CC)C(=O)N1CCC(CC(CS(=O)(=O)c2ccc(OCc3cc(C)nc4ccc(C)cc34)cc2)N(O)C=O)CC1` (stereo not drawn) [Example I-175], half-maximal inhibition against TACE (IC50) required 11 nM.

Compound `Cc1cc(COc2ccc(S(=O)(=O)CC(C=C3CCCN(S(C)(=O)=O)CC3)N(O)C=O)cc2)c2ccccc2n1` (stereo not drawn) [Example I-138] had a half-maximal inhibitory concentration (IC50) against TACE of 2.8 nM.

On to `Cc1cc(COc2ccc(S(=O)(=O)CC(C3CCCN(CC(C)C)C3)N(O)C=O)cc2)c2ccccc2n1` (stereo not drawn) [Example I-154], for which the IC50 against TACE was 31 nM.

Consider `COc1cc(C)cc(COc2ccc(S(=O)(=O)CC(C3CCC4(CC3)OCCO4)N(O)C=O)cc2)c1` (stereo not drawn) [Example I-8, N-[1-(1,4-Dioxaspiro[4.5]dec-8-yl)-2-{4-(3-methoxy-5-methylbenzyloxy)benzenesulfonyl}ethyl]-N-hydroxyformamide], for which the half-maximal inhibitory concentration (IC50) at TACE was 80 nM; at Human MMP1, above 100000 nM; at Human MMP3, 2000 nM; at Human MMP9, 35000 nM; at Human MMP13, 2200 nM; on Human MMP14, 40000 nM. For the same compound, on Human MMP17, the 50% inhibitory concentration (IC50) turned out to be 2000 nM.

As to `CCC(CC)CN1CCC(=CC(CS(=O)(=O)c2ccc(OCc3cc(C)nc4ccc(C)cc34)cc2)N(O)C=O)CC1` (stereo not drawn) [Example I-174], inhibition against TACE was half-maximal at 15 nM (IC50).

`C[C@@H]1O[C@@H](CO)CN(S(=O)(=O)c2ccc(OCc3ccc(F)cc3)cc2)[C@H]1C(=O)NO` [compound 2, reference compound]: the IC50 against TACE (setting [1]) came to 5 nM; at Human MMP1 (setting [1]), 3000 nM; at Human MMP3 it was 40 nM; at Human MMP9 (setting [1]), 20 nM; at Human MMP13, 4 nM; at Human MMP14, 100 nM. Besides, the IC50 at Human MMP17 worked out at 21 nM.

For the compound `Cc1cc(COc2ccc(S(=O)(=O)CC(N(O)C=O)C3(C)CCN(C(=O)OC(C)(C)C)CC3)cc2)c2ccccc2n1` (stereo not drawn) [Example I-161], the 50% inhibitory concentration (IC50) at TACE was found to be 44 nM.

With `CCN1CCC(C(CS(=O)(=O)c2ccc(OCc3cc(C)nc4ccccc34)cc2)N(O)C=O)CC1` (stereo not drawn) [Example I-156], the IC50 at TACE worked out at 33 nM.

For `O=CN(O)C(CC1CCC2(CC1)OCCO2)CS(=O)(=O)c1ccc(OCc2ccc3ccccc3n2)cc1` (stereo not drawn) [Example I-87], on TACE, the IC50 was 5700 nM.

`COCc1cc(COc2ccc(S(=O)(=O)CC(CC3CCC4(CC3)OCCO4)N(O)C=O)cc2)cc(C)n1` (stereo not drawn) [Example I-121] showed an IC50 at TACE of 360 nM.

`Cc1cc(COc2ccc(S(=O)(=O)CC(CC3CCCN(C(=O)OC(C)(C)C)C3)N(O)C=O)cc2)c2ccccc2n1` (stereo not drawn) [Example I-157]: on TACE, the IC50 was determined as 13 nM.

As for `CCC(CC)CN1CCCC(C(CS(=O)(=O)c2ccc(OCc3cc(C)nc4ccccc34)cc2)N(O)C=O)C1` (stereo not drawn) [Example I-160], the IC50 on TACE came out at 50 nM.

Turning to `Cc1cc(COc2ccc(S(=O)(=O)CC(CC3=CCN(C(=O)OC(C)(C)C)CC3(C)C)N(O)C=O)cc2)c2ccccc2n1` (stereo not drawn) [Example I-152], the IC50 against TACE is 13 nM.

Turning to `Cc1cc(COc2ccc(S(=O)(=O)CC(C=C3CCC(=NO)CC3)N(O)C=O)cc2)c2ccccc2n1` (stereo not drawn) [Example I-6, N-Hydroxy-N-[1-(4-hydroxyiminocyclohexylidenemethyl)-2-{4-(2-methylquinolin-4-ylmethoxy)benzenesulfonyl}ethyl]formamide], the IC50 at Human MMP1 came to 80000 nM; on Human MMP3 it was 5000 nM; on Human MMP9 it was 45000 nM; at Human MMP13, 15000 nM; at Human MMP14, 50000 nM; at Human MMP17, 3000 nM.

On TACE, `CCC(CC)C(=O)N1CCCC(=CC(CS(=O)(=O)c2ccc(OCc3cc(C)nc4ccccc34)cc2)N(O)C=O)CC1` (stereo not drawn) [Example I-139] had an IC50 of 8.2 nM.

Take `Cc1cc(COc2ccc(S(=O)(=O)CC(CCC3=CCCC(O)C3)N(O)C=O)cc2)c2ccccc2n1` (stereo not drawn) [Example I-146]: on TACE, the IC50 stood at 9.4 nM.

For `CCN1CCCC(C(CS(=O)(=O)c2ccc(OCc3cc(C)nc4ccccc34)cc2)N(O)C=O)C1` (stereo not drawn) [Example I-153], on TACE, half-maximal inhibition (IC50) required 33 nM.

Compound `Cc1cc(COc2ccc(S(=O)(=O)CC(C=C3CCCN(CC(C)C)CC3)N(O)C=O)cc2)c2ccccc2n1` (stereo not drawn) [Example I-140] gave a concentration for half-maximal inhibition (IC50) against TACE of 8.2 nM.

`CCC(CC)C(=O)N1CC/C(=C\C(CS(=O)(=O)c2ccc(OCc3cc(C)nc4ccccc34)cc2)N(O)C=O)C(C)(C)C1` (stereo not drawn) [Example I-141] showed a 50% inhibitory concentration (IC50) against TACE of 3.3 nM.

As for `Cc1cc(COc2ccc(S(=O)(=O)CC(CCC3(C)CCOCC3)N(O)C=O)cc2)c2ccccc2n1` (stereo not drawn) [Example I-144], the IC50 on TACE amounted to 7.2 nM.

Turning to `Cc1cccc(C(CS(=O)(=O)c2ccc(OCc3cc(C)nc4ccccc34)cc2)N(O)C=O)n1` (stereo not drawn) [Example I-135], the IC50 at TACE turned out to be 4 nM.

`O=CN(O)C(CC1CCC(=O)CC1)CS(=O)(=O)c1ccc(OCc2ccc3ccccc3n2)cc1` (stereo not drawn) [Example I-89]: half-maximal inhibition against TACE (IC50) was put at 820 nM.

For `Cc1cc(C)cc(COc2ccc(S(=O)(=O)CC(CC3CCC4(CC3)OCCO4)N(O)C=O)cc2)c1` (stereo not drawn) [Example I-90], the IC50 on TACE came out at 2100 nM.

Consider `CCN1CCCC(CC(CS(=O)(=O)c2ccc(OCc3cc(C)nc4ccccc34)cc2)N(O)C=O)C1` (stereo not drawn) [Example I-158], for which inhibition against TACE was half-maximal at 26 nM (IC50).

`Cc1cc(COc2ccc(S(=O)(=O)CC(CCc3ccccc3C)N(O)C=O)cc2)c2ccccc2n1` (stereo not drawn) [Example I-40] had an IC50 on TACE of 270 nM.

Compound `O=CN(O)C(CC1CCC(=NO)CC1)CS(=O)(=O)c1ccc(OCc2ccc3ccccc3n2)cc1` (stereo not drawn) [Example I-88] returned an IC50 against TACE of 760 nM.

Regarding `CCC(CC)C(=O)N1CCC(=CC(CS(=O)(=O)c2ccc(OCc3cc(C)nc4ccc(C)cc34)cc2)N(O)C=O)CC1` (stereo not drawn) [Example I-173], half-maximal inhibition against TACE (IC50) required 5 nM.

Consider `Cc1ccc2nc(C)cc(COc3ccc(S(=O)(=O)CC(c4ccc(C)nc4)N(O)C=O)cc3)c2c1` (stereo not drawn) [Example I-147], for which half-maximal inhibition against TACE (IC50) was put at 4.3 nM.

`Cc1cc(COc2ccc(S(=O)(=O)CC(/C=C/C3(C)CCOCC3)N(O)C=O)cc2)c2ccccc2n1` (stereo not drawn) [Example I-143] showed a half-inhibitory concentration (IC50) on TACE of 3.3 nM.

Turning to `Cc1cc(COc2ccc(S(=O)(=O)CC(C3CCC(=NO)CC3)N(O)C=O)cc2)c2ccccc2n1` (stereo not drawn) [Example I-14], the IC50 at Human MMP1 is 30000 nM; on Human MMP14 it was 23000 nM.

For `C=C1CCC(C(CS(=O)(=O)c2ccc(OCc3cc(C)nc4ccccc34)cc2)N(O)C=O)CC1` (stereo not drawn) [Example I-1, N-hydroxy-N-[1-(4-methylenecyclohexyl)-2-{4-(2-methylquinolin-4-ylmethoxy)benzenesulfonyl}ethyl]formamide], the IC50 came out at 50000 nM at Human MMP1; 6000 nM on Human MMP3; 7300 nM at Human MMP13; 40000 nM on Human MMP14; 2000 nM on Human MMP17.
